Bridge positions count the residues as written; N and C are the ends. Square brackets hold non-standard residues; d marks the D form. Peptide text beside a SMILES is read from it. * marks the point of attachment. ξ: configuration not given here. Bip = N[C@@H](Cc1ccc(-c2ccccc2)cc1)C(=O)O; Phe(3-Me) = Cc1cccc(C[C@H](N)C(=O)O)c1; Cha = N[C@@H](CC1CCCCC1)C(=O)O; Cit = NC(=O)NCCC[C@H](N)C(=O)O; Carboxymethyl = O=C(O)C*; Orn = NCCC[C@H](N)C(=O)O; Aun = NCCCCCCCCCCC(=O)O; Dab = NCC[C@H](N)C(=O)O; Dap = NC[C@H](N)C(=O)O; AEEA = NCCOCCOCC(=O)O; ξC = NC(CS)C(=O)O

T1 sequence (Q15116 25-288): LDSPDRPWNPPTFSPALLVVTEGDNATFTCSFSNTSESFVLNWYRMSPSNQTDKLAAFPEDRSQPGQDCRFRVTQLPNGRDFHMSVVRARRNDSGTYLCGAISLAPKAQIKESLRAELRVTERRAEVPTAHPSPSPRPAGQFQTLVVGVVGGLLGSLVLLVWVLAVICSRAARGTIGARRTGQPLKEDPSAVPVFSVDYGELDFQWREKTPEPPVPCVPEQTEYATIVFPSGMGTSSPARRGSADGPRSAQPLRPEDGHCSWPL

The assay has as its target T1, PD-1/PD-L1 interaction (PE-labeled human PD-L1-Ig binding to Jurkat cell line over-expressing human PD-1) (Homo sapiens, UniProt Q15116).
T1 construct: expressed in transfected cells; host or cells: Jurkat
The experiment in a line: Jurkat-PD-1 Cell Binding High-Content Screening Assay (CBA). Format: cell-based. The following applies: Jurkat cell line over-expressing human PD-1; PE-labeled PD-L1-Ig 20 nM final; read-out: Jurkat hPD1-PDL1 IC50. Put shortly:
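Binding of fluorescent PD-L1-Ig (phycoerythrin on Ig tag, 20 nM final, 1 h) measured by high-content imaging of fixed, Hoechst-counterstained Jurkat-hPD-1 cells. Compound added 2 h at 37° C beforehand, in DMEM with 10% fetal calf serum.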
Take `Cc1cccc(C[C@@H]2NC(=O)[C@H](CC(=O)O)NC(=O)[C@H](Cc3ccc(OCC(=O)O)cc3)NC(=O)[C@H](CN)NC(=O)CSC[C@@H](C(=O)N[C@@H](CCN)C(=O)NCCOCCOCC(=O)NCCCCCCCCCCC(=O)O)NC(=O)[C@H](CCCNC(=N)N)NC(=O)[C@H](C(C)C)NC(=O)[C@H](CC3CCCCC3)NC(=O)[C@H](CCN)NC(=O)[C@@H](CC(C)C)NC(=O)[C@H](CCCN)NC(=O)[C@H](CCCNC(N)=O)NC(=O)[C@H](Cc3ccc(-c4ccccc4)cc3)NC(=O)[C@H](C(C)C)NC2=O)c1` [Compound 2635] ({CH2CO}-[Dap]Y(Carboxymethyl)D[Phe(3-Me)]V[Bip][Cit][Orn][dL][Dab][Cha]VRC[Dab][AEEA][Aun]-OH; thioether N-14): the IC50 (in general, the point on the concentration scale where inhibition reaches its midpoint) turned out to be 10.3 nM. The result for `CC[C@H](C)[C@@H]1NC(=O)[C@H](Cc2ccc(-c3ccccc3)cc2)NC(=O)[C@H](C(C)C)NC(=O)[C@H](Cc2cccc(C)c2)NC(=O)[C@H](CC(=O)O)NC(=O)[C@H](Cc2ccc(OCC(=O)O)cc2)NC(=O)[C@H](CN)NC(=O)CSC[C@@H](C(=O)N[C@@H](CCN)C(=O)NCCOCCOCC(=O)NCCCCCCCCCCC(=O)O)NC(=O)[C@H](CCCNC(=N)N)NC(=O)[C@H](C(C)C)NC(=O)[C@H](CC2CCCCC2)NC(=O)[C@H](CCN)NC(=O)[C@@H](CC(C)C)NC(=O)[C@H](CCCN)NC1=O` [Compound 2636] ({CH2CO}-[Dap]Y(Carboxymethyl)D[Phe(3-Me)]V[Bip]I[Orn][dL][Dab][Cha]VRC[Dab][AEEA][Aun]-OH; thioether N-14) reads 22.5 nM; that for `Cc1cccc(C[C@@H]2NC(=O)[C@H](CC(=O)O)NC(=O)[C@H](Cc3ccc(OCC(=O)O)cc3)NC(=O)[C@H](CN)NC(=O)CSC[C@@H](C(=O)N[C@@H](CCCCN)C(=O)NCCCCCCCCCCC(=O)O)NC(=O)[C@H](CN)NC(=O)[C@H](C(C)C)NC(=O)[C@H](CC3CCCCC3)NC(=O)[C@H](CCN)NC(=O)[C@@H](CC(C)C)NC(=O)[C@H](CCCN)NC(=O)[C@H](CCCNC(N)=O)NC(=O)[C@H](Cc3ccc(-c4ccccc4)cc3)NC(=O)[C@H](C(C)C)NC2=O)c1` [Compound 2637] ({CH2CO}-[Dap]Y(Carboxymethyl)D[Phe(3-Me)]V[Bip][Cit][Orn][dL][Dab][Cha]V[Dap]CK[Aun]-OH; thioether N-14), 15.5 nM; that for `CC[C@H](C)[C@@H]1NC(=O)[C@H](Cc2ccc(-c3ccccc3)cc2)NC(=O)[C@H](C(C)C)NC(=O)[C@H](Cc2cccc(C)c2)NC(=O)[C@H](CC(=O)O)NC(=O)[C@H](Cc2ccc(OCC(=O)O)cc2)NC(=O)[C@H](CN)NC(=O)CSC[C@@H](C(=O)N[C@@H](CCCCN)C(=O)NCCCCCCCCCCC(=O)O)NC(=O)[C@H](CN)NC(=O)[C@H](C(C)C)NC(=O)[C@H](CC2CCCCC2)NC(=O)[C@H](CCN)NC(=O)[C@@H](CC(C)C)NC(=O)[C@H](CCCN)NC1=O` [Compound 2638] ({CH2CO}-[Dap]Y(Carboxymethyl)D[Phe(3-Me)]V[Bip]I[Orn][dL][Dab][Cha]V[Dap]CK[Aun]-OH; thioether N-14), 19 nM. The same measure for `CC[C@H](C)[C@@H]1NC(=O)[C@H](Cc2ccc(-c3ccccc3)cc2)NC(=O)[C@H](C(C)C)NC(=O)[C@H](Cc2cccc(C)c2)NC(=O)[C@H](CC(=O)O)NC(=O)[C@H](Cc2ccc(OCC(=O)O)cc2)NC(=O)[C@H](CN)NC(=O)CSC[C@@H](C(=O)N[C@@H](CCCCN)C(=O)NCCCCCCCCCCC(=O)O)NC(=O)[C@H](CCCN)NC(=O)[C@H](C(C)C)NC(=O)[C@H](CC2CCCCC2)NC(=O)[C@H](CCN)NC(=O)[C@@H](CC(C)C)NC(=O)[C@H](CCCN)NC1=O` [Compound 2640] ({CH2CO}-[Dap]Y(Carboxymethyl)D[Phe(3-Me)]V[Bip]I[Orn][dL][Dab][Cha]V[Orn]CK[Aun]-OH; thioether N-14): 8.1 nM; for `Cc1cccc(C[C@@H]2NC(=O)[C@H](CC(=O)O)NC(=O)[C@H](Cc3ccc(OCC(=O)O)cc3)NC(=O)[C@H](CN)NC(=O)CSC[C@@H](C(=O)N[C@@H](CCCCN)C(=O)NCCCCCCCCCCC(=O)O)NC(=O)[C@H](CCCNC(N)=O)NC(=O)[C@H](C(C)C)NC(=O)[C@H](CC3CCCCC3)NC(=O)[C@H](CCN)NC(=O)[C@@H](CC(C)C)NC(=O)[C@H](CCCN)NC(=O)[C@H](CCCNC(N)=O)NC(=O)[C@H](Cc3ccc(-c4ccccc4)cc3)NC(=O)[C@H](C(C)C)NC2=O)c1` [Compound 2641] ({CH2CO}-[Dap]Y(Carboxymethyl)D[Phe(3-Me)]V[Bip][Cit][Orn][dL][Dab][Cha]V[Cit]CK[Aun]-OH; thioether N-14): 27.7 nM; for `CC(C)C[C@H]1NC(=O)[C@H](CCCN)NC(=O)[C@H](CCCNC(N)=O)NC(=O)[C@H](Cc2ccc(-c3ccccc3)cc2)NC(=O)[C@H](C(C)C)NC(=O)[C@H](Cc2c[nH]c3ccccc23)NC(=O)[C@H](CC(=O)O)NC(=O)[C@H](Cc2ccc(OCC(=O)O)cc2)NC(=O)[C@H](CN)NC(=O)CSCC(C(=O)NCCOCCOCC(=O)NCCCCCCCCCCC(=O)O)NC(=O)[C@H](CCCCN)NC(=O)[C@H](C(C)C)NC(=O)[C@H](CC2CCCCC2)NC(=O)[C@H](CCN)NC1=O` (stereo partly drawn) [Compound 2643] ({CH2CO}-[Dap]Y(Carboxymethyl)DWV[Bip][Cit][Orn][dL][Dab][Cha]VK[ξC][AEEA][Aun]-OH; thioether N-14): 7.2 nM.

For the compound `CC[C@H](C)[C@@H]1NC(=O)[C@H](Cc2ccc(-c3ccccc3)cc2)NC(=O)[C@H](C(C)C)NC(=O)[C@H](Cc2c[nH]c3ccccc23)NC(=O)[C@H](CC(=O)O)NC(=O)[C@H](Cc2ccc(OCC(=O)O)cc2)NC(=O)[C@H](CN)NC(=O)CSCC(C(=O)NCCOCCOCC(=O)NCCCCCCCCCCC(=O)O)NC(=O)[C@H](CCCCN)NC(=O)[C@H](C(C)C)NC(=O)[C@H](CC2CCCCC2)NC(=O)[C@H](CCN)NC(=O)[C@@H](CC(C)C)NC(=O)[C@H](CCCN)NC1=O` (stereo partly drawn) [Compound 2644] ({CH2CO}-[Dap]Y(Carboxymethyl)DWV[Bip]I[Orn][dL][Dab][Cha]VK[ξC][AEEA][Aun]-OH; thioether N-14), the IC50 was 9.4 nM. Consider `Cc1cccc(C[C@@H]2NC(=O)[C@H](CC(=O)O)NC(=O)[C@H](Cc3ccc(OCC(=O)O)cc3)NC(=O)[C@H](CN)NC(=O)CSCC(C(=O)NCCOCCOCC(=O)NCCCCCCCCCCC(=O)O)NC(=O)[C@H](CN)NC(=O)[C@H](C(C)C)NC(=O)[C@H](CC3CCCCC3)NC(=O)[C@H](CCN)NC(=O)[C@@H](CC(C)C)NC(=O)[C@H](CCCN)NC(=O)[C@H](CCCNC(N)=O)NC(=O)[C@H](Cc3ccc(-c4ccccc4)cc3)NC(=O)[C@H](C(C)C)NC2=O)c1` (stereo partly drawn) [Compound 2645] ({CH2CO}-[Dap]Y(Carboxymethyl)D[Phe(3-Me)]V[Bip][Cit][Orn][dL][Dab][Cha]V[Dap][ξC][AEEA][Aun]-OH; thioether N-14), for which the IC50 was 15.4 nM. The result for `CC[C@H](C)[C@@H]1NC(=O)[C@H](Cc2ccc(-c3ccccc3)cc2)NC(=O)[C@H](C(C)C)NC(=O)[C@H](Cc2cccc(C)c2)NC(=O)[C@H](CC(=O)O)NC(=O)[C@H](Cc2ccc(OCC(=O)O)cc2)NC(=O)[C@H](CN)NC(=O)CSCC(C(=O)NCCOCCOCC(=O)NCCCCCCCCCCC(=O)O)NC(=O)[C@H](CN)NC(=O)[C@H](C(C)C)NC(=O)[C@H](CC2CCCCC2)NC(=O)[C@H](CCN)NC(=O)[C@@H](CC(C)C)NC(=O)[C@H](CCCN)NC1=O` (stereo partly drawn) [Compound 2646] ({CH2CO}-[Dap]Y(Carboxymethyl)D[Phe(3-Me)]V[Bip]I[Orn][dL][Dab][Cha]V[Dap][ξC][AEEA][Aun]-OH; thioether N-14) reads 13.2 nM. The same measure for `Cc1cccc(C[C@@H]2NC(=O)[C@H](CC(=O)O)NC(=O)[C@H](Cc3ccc(OCC(=O)O)cc3)NC(=O)[C@H](CN)NC(=O)CSCC(C(=O)NCCOCCOCC(=O)NCCCCCCCCCCC(=O)O)NC(=O)[C@H](CCCN)NC(=O)[C@H](C(C)C)NC(=O)[C@H](CC3CCCCC3)NC(=O)[C@H](CCN)NC(=O)[C@@H](CC(C)C)NC(=O)[C@H](CCCN)NC(=O)[C@H](CCCNC(N)=O)NC(=O)[C@H](Cc3ccc(-c4ccccc4)cc3)NC(=O)[C@H](C(C)C)NC2=O)c1` (stereo partly drawn) [Compound 2647] ({CH2CO}-[Dap]Y(Carboxymethyl)D[Phe(3-Me)]V[Bip][Cit][Orn][dL][Dab][Cha]V[Orn][ξC][AEEA][Aun]-OH; thioether N-14): 7.7 nM; for `CC[C@H](C)[C@@H]1NC(=O)[C@H](Cc2ccc(-c3ccccc3)cc2)NC(=O)[C@H](C(C)C)NC(=O)[C@H](Cc2cccc(C)c2)NC(=O)[C@H](CC(=O)O)NC(=O)[C@H](Cc2ccc(OCC(=O)O)cc2)NC(=O)[C@H](CN)NC(=O)CSCC(C(=O)NCCOCCOCC(=O)NCCCCCCCCCCC(=O)O)NC(=O)[C@H](CCCN)NC(=O)[C@H](C(C)C)NC(=O)[C@H](CC2CCCCC2)NC(=O)[C@H](CCN)NC(=O)[C@@H](CC(C)C)NC(=O)[C@H](CCCN)NC1=O` (stereo partly drawn) [Compound 2648] ({CH2CO}-[Dap]Y(Carboxymethyl)D[Phe(3-Me)]V[Bip]I[Orn][dL][Dab][Cha]V[Orn][ξC][AEEA][Aun]-OH; thioether N-14): 8.9 nM. The same measure for `Cc1cccc(C[C@@H]2NC(=O)[C@H](CC(=O)O)NC(=O)[C@H](Cc3ccc(OCC(=O)O)cc3)NC(=O)[C@H](CN)NC(=O)CSC[C@@H](C(=O)N[C@@H](CCCCN)C(=O)NCCOCCOCC(=O)NCCCCCCCCCCC(=O)O)NC(=O)[C@H](CN)NC(=O)[C@H](C(C)C)NC(=O)[C@H](CC3CCCCC3)NC(=O)[C@H](CCN)NC(=O)[C@@H](CC(C)C)NC(=O)[C@H](CCCN)NC(=O)[C@H](CCCNC(N)=O)NC(=O)[C@H](Cc3ccc(-c4ccccc4)cc3)NC(=O)[C@H](C(C)C)NC2=O)c1` [Compound 2649] ({CH2CO}-[Dap]Y(Carboxymethyl)D[Phe(3-Me)]V[Bip][Cit][Orn][dL][Dab][Cha]V[Dap]CK[AEEA][Aun]-OH; thioether N-14): 11.1 nM.

For the origin of these results see US20260022142A1, “MACROCYCLIC IMMUNOMODULATORS” (Bristol-Myers Squibb Company, priority 2022, published 2026).
